# Values of other authors as cited in US5613958A, “Transdermal delivery systems for the modulated administration of drugs” (PP Holdings Inc., priority 1995, dated 1997).
# Details: for accumulation in plasma: during continuous ISDN therapy
Structure (SMILES),accumulation in plasma,antianginal efficacy (dose regimens letting IS-5-MN fall below 100 ng/ml before next dose),rate of elimination (metabolite of ISDN)
"O=[N+]([O-])O[C@H]1CO[C@H]2[C@@H]1OC[C@H]2O [IS-2-MN, isosorbide 2-mononitrate]",accumulate in the plasma,,
"O=[N+]([O-])O[C@@H]1CO[C@H]2[C@@H]1OC[C@@H]2O [IS-5-MN, isosorbide 5-mononitrate]",accumulate in the plasma,continuous antianginal efficacy,slowest rate of elimination
